Measurements as given in publication PMC11079024, “Identification of a family of species-selective complex I inhibitors as potential anthelmintics” (Nature Communications, 2024).
Values joined by “and” are separate entries in the source; they are usually repeats but may differ in a detail not shown here. Identical values can stand only once.

How the values were obtained:
[1] = target: C. elegans (N2) complex I (NADH:ubiquinone oxidoreductase) (Caenorhabditis elegans, UniProt P24887+Q93873+Q94360); experiment: biochemical; assay type: biochemical; conditions: for % Activity Complex I: 100 µM compound, relative to solvent control, mean (SEM); for Percent in vitro activity, Complex I (single replicate Rep1-Rep4) / Percent in vitro activity, Complex I (Mean): 100 μM of NPD compound, C. elegans mitochondria; for Percent in vitro activity, Complex I (single replicate Rep1-Rep4): individual biological replicates; for Percent in vitro activity, Complex I (Mean): mean of four biological replicates
Procedure, shortened: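 Mitochondria from liquid-cultured adults were freeze-thawed thrice before the 15-min DCIP-coupled NADH oxidation read.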

HEK293 cells = conditions: for CC50: read-out: HEK293 Cell Viability Assay LC50, 2 days exposure
[2] = tested on: C. elegans complex III (decylubiquinol-cytochrome C reductase); experiment: In vitro complex III activity assay, C. elegans mitochondria; assay type: biochemical, Caenorhabditis elegans; conditions: for % Activity Complex III: 100 µM compound, relative to solvent control, mean (SEM); for Percent in vitro activity, Complex III (single replicate Rep1-Rep4) / Percent in vitro activity, Complex III (Mean): 100 μM of NPD compound, C. elegans mitochondria; for Percent in vitro activity, Complex III (single replicate Rep1-Rep4): individual biological replicates; for Percent in vitro activity, Complex III (Mean): mean of four biological replicates
Description: (§1) Mitochondria were isolated from the following free-living nematode strains: C. elegans—N2, CB3474, ECA882, ECA917, ECA1075, ECA1080; C. briggsae—AF16; P. pacificus—PS312; and P. hermaphrodita—B178. With the exception of the P. hermaphrodita strain B178, adult worms of each strain were grown in bulk through liquid culture to obtain mitochondria in sufficient quantities. Due to poor growth in liquid media, mixed stage populations of P. hermaphrodita were washed off and collected from NGM plates seeded with OP50. The isolation of mitochondria from all free-living nematode strains followed the protocol previously outlined in Burns et al.[24]. In brief, a 1 L saturated culture of E. coli HB101 was concentrated 20-fold in 50 mL complete S-medium. ~500,000 L1 worms synchronized from an embryo preparation performed the day prior were added to the S-media/HB101 suspension and grown to adulthood over the course of 3.5 days at 20 °C with shaking at 165 rpm. Following growth, worms were collected in 10 ×15 mL conical tubes and washed 7 times in M9 buffer. Worm suspensions were then combined into a single 15 mL conical tube and diluted to a final volume of 15 mL with M9 buffer. 1 mL aliquots of worm suspension were then distributed to 15 × 1.5 mL screw-cap microcentrifuge tubes and were pelleted at 500 g for 1 min. Excess M9 was aspirated without disturbing the worm pellet. 600 μL ice-cold isolate buffer A (250 mM sucrose, 10 mM Tris (pH 7.5), 1 mM EDTA, 1 mM PMSF (freshly prepared)) and 300 μL cold glass beads were then added to each tube. Tubes were incubated on ice for 10 min, and the worms were then lysed by bead beating (6 x 30 s, with 1 min cooling intervals). Tubes containing worm lysate were centrifuged at 1,000 g for 10 min at 4 °C and the supernatant was transferred to 15 new microcentrifuge tubes on ice. The tubes were centrifuged a second time at 1,000 g for 10 min at 4 °C and the supernatant was once again transferred to 15 new microcentrifuge tubes on ice. These tubes were then centrifuged at 16,000 g for 10 min at 4 °C. The resulting mitochondrial pellet was washed twice by re-suspension in 300 μL of ice-cold isolate buffer B (250 mM sucrose, 10 mM Tris (pH 7.5), 1 mM EDTA). Following the final wash, isolation buffer was aspirated from each tube and the pellets were flash-frozen in ethanol/dry ice and stored at −80 °C until needed.
(§2) The enzymatic activities of individual ETC complexes (I-IV) were assessed spectrophotometrically in isolated mitochondria using a Varioskan LUX Multimode plate reader (ThermoFisher Scientific). Mitochondrial pellets previously isolated were thawed on ice and resuspended in ice-cold isolation buffer (250 mM sucrose, 10 mM Tris (pH 7.5), 1 mM EDTA). The BCA assay (Walker, 1994) was used to quantify the protein concentration of mitochondria suspensions; solutions were diluted to a concentration of 0.2 mg/mL for use in all assays. For the complex I assay, mitochondria pellets were freeze-thawed on ice three times to increase enzyme accessibility. […] 20 μL mitochondria suspension was then added/mixed with a pipette to initiate the reaction. Immediately following the addition of mitochondria, absorbance was measured (complex I and II: 600 nm; complex III and IV: 550 nm) in 30 s intervals over 15 min. Enzymatic activity was determined in each reaction by plotting absorbance versus time and calculating the slope of the curve during the initial linear phase of the reaction. […] Percent activity of each complex was calculated by dividing the enzyme-specific activity of each well by the enzyme-specific activity of the corresponding solvent controls.
Antimycin A-sensitive complex III (decylubiquinol-cytochrome C […]) activity was determined by measuring the reduction of cytochrome C (CytC) as optimized in Luo et al.[59]. Decylubiquinol for complex III assays was prepared fresh as described in Janssen and Boyle, 2019[60].

[3] = target: C. elegans complex II (succinate dehydrogenase) (Caenorhabditis elegans, UniProt O62215+P41956+Q09545); experiment: In vitro complex II activity assay, C. elegans mitochondria; assay type: biochemical; conditions: for % Activity Complex II: 100 µM compound, relative to solvent control, mean (SEM); for Percent in vitro activity, Complex II (single replicate Rep1-Rep4) / Percent in vitro activity, Complex II (Mean): 100 μM of NPD compound, C. elegans mitochondria; for Percent in vitro activity, Complex II (single replicate Rep1-Rep4): individual biological replicates; for Percent in vitro activity, Complex II (Mean): mean of four biological replicates
Description: as §1, §2
Complex II (succinate dehydrogenase) activity was assessed using the DCIP-coupled method previously described in Burns et al.[24].
For preliminary screens of hit compounds, compounds were screened at 100 μM; data are the average of at least three biological replicates. The complex I and II activity assays were used for additional dose-response experiments.

[4] = tested on: C. elegans complex IV (cytochrome C oxidase); experiment: In vitro complex IV activity assay, C. elegans mitochondria; assay type: biochemical, Caenorhabditis elegans; conditions: for % Activity Complex IV: 100 µM compound, relative to solvent control, mean (SEM); for Percent in vitro activity, Complex IV (single replicate Rep1-Rep4) / Percent in vitro activity, Complex IV (Mean): 100 μM of NPD compound, C. elegans mitochondria; for Percent in vitro activity, Complex IV (single replicate Rep1-Rep4): individual biological replicates; for Percent in vitro activity, Complex IV (Mean): mean of four biological replicates
Description: as §1, §2
Complex IV (cytochrome C oxidase) activity was determined by following the oxidation of CytC in the protocol outlined by Janssen and Boyle, 2019[60]. Reduced CytC was prepared fresh by adding 1 μL increments of 1 M dithiothreitol to a 1 mM solution of CytC and vortexing. A colour change from brown to orange/pink signals when CytC has been reduced.

L1 wild-type C. elegans = conditions: for LC50: caenorhabditis elegans
C. elegans = C. elegans chemical screens of RIKEN NPD libraries at 50 μM (hit identification in KCN survival and development/viability assays); assay type: cell-based, Caenorhabditis elegans; conditions: screened at 50 μM in triplicate, KCN = KCN survival assay, Dev. & Viability = development/viability assay

C. elegans (N2) complex I (NADH:ubiquinone oxidoreductase), sequence (Q94360 17-199): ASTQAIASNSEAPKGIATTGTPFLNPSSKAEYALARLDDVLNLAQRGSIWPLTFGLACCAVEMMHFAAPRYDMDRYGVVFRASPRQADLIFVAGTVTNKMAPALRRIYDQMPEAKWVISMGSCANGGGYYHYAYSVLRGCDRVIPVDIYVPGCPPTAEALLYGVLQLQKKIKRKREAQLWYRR
C. elegans (N2) complex I (NADH:ubiquinone oxidoreductase), sequence (P24887 whole entry): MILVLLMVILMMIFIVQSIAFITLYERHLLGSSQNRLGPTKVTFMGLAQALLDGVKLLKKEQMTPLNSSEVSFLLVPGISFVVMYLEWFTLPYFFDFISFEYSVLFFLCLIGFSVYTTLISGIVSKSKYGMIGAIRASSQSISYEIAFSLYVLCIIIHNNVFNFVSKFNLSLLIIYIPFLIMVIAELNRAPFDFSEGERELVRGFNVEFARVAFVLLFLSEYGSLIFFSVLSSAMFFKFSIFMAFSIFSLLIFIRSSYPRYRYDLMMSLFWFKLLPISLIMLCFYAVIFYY
C. elegans (N2) complex I (NADH:ubiquinone oxidoreductase), sequence (Q93873 31-482): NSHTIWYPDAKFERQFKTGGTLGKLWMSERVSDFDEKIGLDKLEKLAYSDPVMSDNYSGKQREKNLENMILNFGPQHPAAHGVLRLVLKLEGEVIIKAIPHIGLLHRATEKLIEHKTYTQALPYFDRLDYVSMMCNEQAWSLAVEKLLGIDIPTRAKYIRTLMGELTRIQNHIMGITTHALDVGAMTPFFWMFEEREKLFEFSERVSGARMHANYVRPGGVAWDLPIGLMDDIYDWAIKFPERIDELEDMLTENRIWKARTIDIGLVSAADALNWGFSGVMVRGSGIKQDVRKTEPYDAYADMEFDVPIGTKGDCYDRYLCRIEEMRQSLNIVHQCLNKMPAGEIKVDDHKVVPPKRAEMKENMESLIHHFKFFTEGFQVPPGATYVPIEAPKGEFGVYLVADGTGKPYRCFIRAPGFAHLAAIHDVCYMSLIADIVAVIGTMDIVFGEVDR
C. elegans complex II (succinate dehydrogenase), sequence (P41956 30-182): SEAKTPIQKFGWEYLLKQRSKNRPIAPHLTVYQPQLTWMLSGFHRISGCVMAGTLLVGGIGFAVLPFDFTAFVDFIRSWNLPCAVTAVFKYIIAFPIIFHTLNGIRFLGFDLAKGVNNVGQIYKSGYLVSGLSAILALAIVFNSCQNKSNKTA
C. elegans complex II (succinate dehydrogenase), sequence (Q09545 22-298): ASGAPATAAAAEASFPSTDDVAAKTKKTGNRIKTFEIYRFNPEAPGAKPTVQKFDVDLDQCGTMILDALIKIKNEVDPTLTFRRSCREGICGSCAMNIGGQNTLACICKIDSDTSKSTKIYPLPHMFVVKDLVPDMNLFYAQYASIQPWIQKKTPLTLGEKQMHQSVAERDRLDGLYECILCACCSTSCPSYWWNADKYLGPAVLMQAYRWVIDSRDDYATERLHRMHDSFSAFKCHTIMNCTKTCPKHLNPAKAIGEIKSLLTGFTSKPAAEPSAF
C. elegans complex II (succinate dehydrogenase), sequence (Q09508 32-646, further chain): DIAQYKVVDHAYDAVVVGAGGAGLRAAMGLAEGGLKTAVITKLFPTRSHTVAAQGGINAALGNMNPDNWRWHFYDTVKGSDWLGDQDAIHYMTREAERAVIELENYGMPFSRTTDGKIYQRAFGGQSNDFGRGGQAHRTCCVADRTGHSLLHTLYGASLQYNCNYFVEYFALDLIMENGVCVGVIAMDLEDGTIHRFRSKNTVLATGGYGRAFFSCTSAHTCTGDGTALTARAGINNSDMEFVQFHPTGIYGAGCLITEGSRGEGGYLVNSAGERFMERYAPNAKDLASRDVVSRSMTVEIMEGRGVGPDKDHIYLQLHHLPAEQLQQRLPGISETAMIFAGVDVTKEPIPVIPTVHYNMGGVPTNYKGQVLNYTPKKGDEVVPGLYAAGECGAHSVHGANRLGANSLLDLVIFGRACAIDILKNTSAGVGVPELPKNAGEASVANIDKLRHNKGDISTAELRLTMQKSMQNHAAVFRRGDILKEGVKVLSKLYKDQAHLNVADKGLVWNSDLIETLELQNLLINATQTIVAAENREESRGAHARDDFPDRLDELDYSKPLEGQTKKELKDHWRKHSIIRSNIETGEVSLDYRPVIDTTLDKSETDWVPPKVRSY
C. elegans complex II (succinate dehydrogenase), sequence (O62215 31-145): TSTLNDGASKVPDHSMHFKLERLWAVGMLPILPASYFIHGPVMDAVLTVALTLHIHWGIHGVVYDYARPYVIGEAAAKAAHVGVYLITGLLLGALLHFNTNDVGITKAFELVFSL

| SMILES | % Activity Complex I [1] | Percent in vitro activity, Complex I (single replicate Rep1-Rep4) [1] | Percent in vitro activity, Complex I (Mean) [1] [%] | CC50 (HEK293 cells) [µM] | % Activity Complex III [2] | Percent in vitro activity, Complex III (single replicate Rep1-Rep4) [2] | Percent in vitro activity, Complex III (Mean) [2] [%] | % Activity Complex II [3] | Percent in vitro activity, Complex II (single replicate Rep1-Rep4) [3] | Percent in vitro activity, Complex II (Mean) [3] [%] | % Activity Complex IV [4] | Percent in vitro activity, Complex IV (single replicate Rep1-Rep4) [4] | Percent in vitro activity, Complex IV (Mean) [4] [%] | C. elegans L1 relative motility, 3-hour post 200 µM KCN dilution (L1 wild-type C. elegans) | LC50 (L1 wild-type C. elegans) [µM] | Hit Type (C. elegans; hit = modified z-score < −3) | HEK293 viability (HEK293 cells) | Hit Type (C. elegans; […]) |
| --- | --- | --- | --- | --- | --- | --- | --- | --- | --- | --- | --- | --- | --- | --- | --- | --- | --- | --- |
| O=C1OC(c2ccccc2)=NC1=CC=Cc1ccccc1 (mixture of isomers) [NPD8298] | 79.90 (1.23) % | 86.721% and 79.429% and 78.427% and 75.015% | 79.898 | > 50 | 101.94 (2.48) % | 91.530% and 111.178% and 95.430% and 109.622% | 101.940 | 110.37 (5.08) % | 109.359% and 85.283% and 134.975% and 111.861% | 110.370 | 108.05 (2.17) % | 99.305% and 106.055% and 106.771% and 120.048% | 108.045 | 0.014 | 2.57 | KCN | – | – |
| Cc1nc2ccc(Br)cc2c2c1CC(C)O2 (racemic) [NP974] | – | – | – | – | – | – | – | – | – | – | – | – | – | – | 19 | KCN/Dev. & Viability | – | – |
| Cc1nc2ccc(Br)cc2c2c1CC(C(C)(Cl)Br)O2 (racemic) [NPD10211] | – | – | – | – | – | – | – | – | – | – | – | – | – | – | 14.5 | KCN/Dev. & Viability | – | – |
| CCCCCCCCCCCCCCCc1cccc(O)c1C(=O)O [Anacardic acid] | 92.95 (1.67) % | 100.303% and 96.789% and 88.185% and 86.534% | 92.953 | > 50 | 0.00 (0.00) % | 0.000% | 0.000 | 87.62 (1.34) % | 86.093% and 91.144% and 92.500% and 80.735% | 87.618 | 15.80 (1.15) % | 11.285% and 16.095% and 13.805% and 22.025% | 15.803 | – | 3.35 | KCN | – | – |
| O=C(/C=C/c1ccccc1)/C=C/c1ccccc1 [FSL0005] | 91.90 (0.78) % | 93.303% and 89.704% and 95.600% and 88.991% | 91.900 | 7.48 | 103.92 (1.25) % | 104.719% and 106.444% and 107.817% and 96.693% | 103.918 | 80.91 (2.02) % | 88.395% and 79.227% and 70.277% and 85.744% | 80.911 | 92.29 (3.01) % | 87.534% and 94.293% and 79.459% and 107.854% | 92.285 | 0.000 | 0.93 | KCN | – | – |
| O=C(CCCN1C(=O)c2cccc3cccc(c23)C1=O)N1CCN(Cc2ccc3c(c2)OCO3)CC1 [HTD0465] | – | – | – | 20.5 | – | – | – | – | – | – | – | – | – | – | – | Dev. & Viability | – | – |
| Cc1ccc(N=c2cc(-c3ccc4c(c3)OCO4)oc3ccccc23)cc1C [NPD601] | – | – | – | – | – | – | – | – | – | – | – | – | – | – | 13.6 | KCN | – | – |
| COc1ccc(-c2cc(=Nc3ccc(C)cc3)c3ccccc3o2)cc1OC [NPD1450] | 84.47 (2.03) % | 79.543% and 95.426% and 77.236% and 85.664% | 84.467 | > 50 | 111.72 (0.94) % | 113.847% and 114.804% and 111.813% and 106.416% | 111.720 | 103.01 (4.34) % | 124.470% and 101.843% and 81.995% and 103.742% | 103.012 | 117.12 (3.30) % | 109.749% and 111.295% and 110.581% and 136.859% | 117.121 | – | 35.3 | KCN | 0.921 | – |
| CC1(C#CCN2CCCCCC2)CCC2C(O1)c1ccccc1OC2(C)C (stereo not shown) [NPD5219] | – | – | – | 14.8 | – | – | – | – | – | – | – | – | – | – | – | Dev. & Viability | – | – |
| Cc1cc(O)c(C(=O)/C=C/c2ccc(C(C)C)cc2)c(=O)o1 [NPD6240] | 102.09 (1.80) % | 109.404% and 106.987% and 94.906% and 97.066% | 102.091 | 24.8 | 58.21 (2.30) % | 63.255% and 68.621% and 49.848% and 51.103% | 58.207 | 87.73 (3.81) % | 105.436% and 95.089% and 72.487% and 77.924% | 87.734 | 26.82 (0.75) % | 23.388% and 25.790% and 27.706% and 30.409% | 26.823 | 0.078 | 7.6 | KCN | – | – |
| COc1ccc(N=c2cc(-c3ccc(OC)c(OC)c3)oc3ccccc23)c(OC)c1 [NPD6383] | – | – | – | – | – | – | – | – | – | – | – | – | – | – | 22.2 | KCN | – | – |
| COc1ccccc1/C=C/C(=O)c1cc(C)ccc1O [NPD8582] | – | – | – | – | – | – | – | – | – | – | – | – | – | – | 14.7 | KCN | – | – |
| CCCC[C@@]1(OC(=O)CCC(=O)O)CC[C@]2(CC[C@H](C)[C@@H](C/C=C(C)/C=C/[C@H](O)[C@@H](C)/C=C/C(=O)O)O2)O[C@H]1/C=C/C(C)=C/C(=O)O [Reveromycin A, reference compound] | – | – | – | – | – | – | – | – | – | – | – | – | – | – | – | – | – | Dev. & Viability |
| CCc1ccc(-c2cc(C(=O)Nc3nccs3)c3ccccc3n2)cc1 [STK418118] | – | – | – | > 50 | – | – | – | – | – | – | – | – | – | – | – | Dev. & Viability | – | – |
| CN[C@@H]1C[C@H]2O[C@@](C)([C@@H]1OC)n1c3ccccc3c3c4c(c5c6ccccc6n2c5c31)C(=O)NC4 [Staurosporine, reference compound] | – | – | – | – | – | – | – | – | – | – | – | – | – | – | – | – | – | Dev. & Viability |
